According to ChEMBL document CHEMBL3885881, “DrugMatrix”:

Species on record: Rattus norvegicus
Experiment: DrugMatrix - Regimen: Daily Repeat
Format: toxicity, organism-based, Sprague-Dawley
Set-up: regimen Daily Repeat, gender Male, age 6-8 weeks
Conditions: in vivo, po, route oral GAVAGE, vehicle .5 % CMC; for ABSOLUTE BASOPHIL / ABSOLUTE EOSINOPHIL / ABSOLUTE LYMPHOCYTE / ABSOLUTE MONOCYTE / ABSOLUTE SEGMENTED NEUTROPHIL / BASOPHIL / EOSINOPHIL / ERYTHROCYTE COUNT / HEMATOCRIT / HEMOGLOBIN / LEUKOCYTE COUNT / LYMPHOCYTE / MEAN CORPUSCULAR HEMOGLOBIN / MEAN CORPUSCULAR VOLUME / MONOCYTE / NEUTROPHIL / NUCLEATED RED BLOOD CELLS / PLATELET COUNT: tissue Blood; for ALANINE AMINOTRANSFERASE / ALBUMIN / ALKALINE PHOSPHATASE / ASPARTATE AMINOTRANSFERASE / BLOOD UREA NITROGEN / CARBON DIOXIDE / CHLORIDE / CHOLESTEROL / CREATINE PHOSPHOKINASE / CREATININE / GLUCOSE / LACTATE DEHYDROGENASE / LIPASE / PHOSPHORUS / POTASSIUM / SODIUM / TOTAL BILIRUBIN / TOTAL PROTEIN / URIC ACID: tissue Plasma
[1] = 68 mg/kg, 72 h, dose level Low, time 3 day
[2] = 68 mg/kg, 120 h, dose level Low, time 5 day
[3] = 750 mg/kg, 72 h, dose level High, time 3 day
[4] = 750 mg/kg, 120 h, dose level High, time 5 day

In the case of `C(=C\c1ccccc1)/CN1CCN(C(c2ccccc2)c2ccccc2)CC1` [CINNARIZINE], the “ABSOLUTE BASOPHIL” value [1] is reported as 0 CELLS/uL, the “ABSOLUTE EOSINOPHIL” value [1] is reported as 0 CELLS/uL and the “ABSOLUTE LYMPHOCYTE” value [1] is reported as 14250 CELLS/uL. The “ABSOLUTE MONOCYTE” value [1] was 268.67 CELLS/uL, the “ABSOLUTE SEGMENTED NEUTROPHIL” value [1] was 1614.67 CELLS/uL and the BASOPHIL [1] was 0%. For the same compound, the EOSINOPHIL [1] was 0%, the “ERYTHROCYTE COUNT” value [1] was 5.37 x10E6/uL and the HEMATOCRIT [1] was 33.93%. For the same compound, the HEMOGLOBIN [1] was 12.87 G/DL, the “LEUKOCYTE COUNT” value [1] was 16.13 x10E3/uL and the LYMPHOCYTE [1] was 88.33%. For the same compound, the “MEAN CORPUSCULAR HEMOGLOBIN” value [1] was 24 pg, the “MEAN CORPUSCULAR VOLUME” value [1] was 63.2 fL and the MONOCYTE [1] was 1.67%. The NEUTROPHIL [1] was 10%, the “NUCLEATED RED BLOOD CELLS” value [1] was 0 /100WBC and the “PLATELET COUNT” value [1] was 1225 x10E3/uL. For the same compound, the “ALANINE AMINOTRANSFERASE” value [1] was 45.33 u/L, the ALBUMIN [1] was 4.37 G/DL and the “ALKALINE PHOSPHATASE” value [1] was 323 u/L. For the same compound, the “ASPARTATE AMINOTRANSFERASE” value [1] was 68.67 u/L, the “BLOOD UREA NITROGEN” value [1] was 15.33 mg/dL and the “CARBON DIOXIDE” value [1] was 24.33 mmol/L. The CHLORIDE [1] was 102 MEQ/L, the CHOLESTEROL [1] was 67.33 mg/dL and the “CREATINE PHOSPHOKINASE” value [1] was 220.67 u/L. For the same compound, the CREATININE [1] was 0.17 mg/dL, the GLUCOSE [1] was 136.33 mg/dL and the “LACTATE DEHYDROGENASE” value [1] was 186 u/L. The LIPASE [1] was 9 u/L, the PHOSPHORUS [1] was 11.57 mg/dL and the POTASSIUM [1] was 6.72 MEQ/L. The SODIUM [1] was 145.13 MEQ/L, the “TOTAL BILIRUBIN” value [1] was 0.2 mg/dL and the “TOTAL PROTEIN” value [1] was 5.33 G/DL. The “URIC ACID” value [1] was 1.7 mg/dL, the “ABSOLUTE BASOPHIL” value [2] was 0 CELLS/uL and the “ABSOLUTE EOSINOPHIL” value [2] was 62.67 CELLS/uL. The “ABSOLUTE LYMPHOCYTE” value [2] was 17347 CELLS/uL, the “ABSOLUTE MONOCYTE” value [2] was 686 CELLS/uL and the “ABSOLUTE SEGMENTED NEUTROPHIL” value [2] was 2204.33 CELLS/uL. The BASOPHIL [2] was 0%, the EOSINOPHIL [2] was 0.33% and the “ERYTHROCYTE COUNT” value [2] was 5.91 x10E6/uL. For the same compound, the HEMATOCRIT [2] was 36.67%, the HEMOGLOBIN [2] was 13.63 G/DL and the “LEUKOCYTE COUNT” value [2] was 20.3 x10E3/uL. The LYMPHOCYTE [2] was 85.33%, the “MEAN CORPUSCULAR HEMOGLOBIN” value [2] was 23.13 pg and the “MEAN CORPUSCULAR VOLUME” value [2] was 62.13 fL. The MONOCYTE [2] was 3.33%, the NEUTROPHIL [2] was 11% and the “NUCLEATED RED BLOOD CELLS” value [2] was 0 /100WBC. The “PLATELET COUNT” value [2] was 1382.33 x10E3/uL, the “ALANINE AMINOTRANSFERASE” value [2] was 44 u/L and the ALBUMIN [2] was 4.3 G/DL. For the same compound, the “ALKALINE PHOSPHATASE” value [2] was 307 u/L, the “ASPARTATE AMINOTRANSFERASE” value [2] was 78.33 u/L and the “BLOOD UREA NITROGEN” value [2] was 21.67 mg/dL. The “CARBON DIOXIDE” value [2] was 26 mmol/L, the CHLORIDE [2] was 107.33 MEQ/L and the CHOLESTEROL [2] was 53.33 mg/dL. The “CREATINE PHOSPHOKINASE” value [2] was 288.33 u/L, the CREATININE [2] was 0.19 mg/dL and the GLUCOSE [2] was 133 mg/dL. The “LACTATE DEHYDROGENASE” value [2] was 263 u/L, the LIPASE [2] was 8.67 u/L and the PHOSPHORUS [2] was 11.3 mg/dL. The POTASSIUM [2] was 6.89 MEQ/L, the SODIUM [2] was 145.37 MEQ/L and the “TOTAL BILIRUBIN” value [2] was 0.17 mg/dL. For the same compound, the “TOTAL PROTEIN” value [2] was 6.13 G/DL, the “URIC ACID” value [2] was 1.5 mg/dL and the “ABSOLUTE BASOPHIL” value [3] was 0 CELLS/uL. The “ABSOLUTE EOSINOPHIL” value [3] was 121.67 CELLS/uL, the “ABSOLUTE LYMPHOCYTE” value [3] was 10962.67 CELLS/uL and the “ABSOLUTE MONOCYTE” value [3] was 242 CELLS/uL. The “ABSOLUTE SEGMENTED NEUTROPHIL” value [3] was 773.67 CELLS/uL, the BASOPHIL [3] was 0% and the EOSINOPHIL [3] was 1%. The “ERYTHROCYTE COUNT” value [3] was 6.6 x10E6/uL, the HEMATOCRIT [3] was 41.67% and the HEMOGLOBIN [3] was 15.33 G/DL. The “LEUKOCYTE COUNT” value [3] was 12.1 x10E3/uL, the LYMPHOCYTE [3] was 90.67% and the “MEAN CORPUSCULAR HEMOGLOBIN” value [3] was 23.23 pg. The “MEAN CORPUSCULAR VOLUME” value [3] was 63.07 fL, the MONOCYTE [3] was 2% and the NEUTROPHIL [3] was 6.33%. The “NUCLEATED RED BLOOD CELLS” value [3] was 0 /100WBC, the “PLATELET COUNT” value [3] was 1456.67 x10E3/uL and the “ALANINE AMINOTRANSFERASE” value [3] was 52.33 u/L. For the same compound, the ALBUMIN [3] was 4.3 G/DL, the “ALKALINE PHOSPHATASE” value [3] was 423.33 u/L and the “ASPARTATE AMINOTRANSFERASE” value [3] was 79.33 u/L. For the same compound, the “BLOOD UREA NITROGEN” value [3] was 19 mg/dL, the “CARBON DIOXIDE” value [3] was 26.67 mmol/L and the CHLORIDE [3] was 99.33 MEQ/L. The CHOLESTEROL [3] was 58.67 mg/dL, the “CREATINE PHOSPHOKINASE” value [3] was 294.67 u/L and the CREATININE [3] was 0.19 mg/dL. The GLUCOSE [3] was 138 mg/dL, the “LACTATE DEHYDROGENASE” value [3] was 240.67 u/L and the LIPASE [3] was 10 u/L. The PHOSPHORUS [3] was 11.73 mg/dL, the POTASSIUM [3] was 6.79 MEQ/L and the SODIUM [3] was 141.93 MEQ/L. For the same compound, the “TOTAL BILIRUBIN” value [3] was 0.17 mg/dL, the “TOTAL PROTEIN” value [3] was 6.1 G/DL and the “URIC ACID” value [3] was 1.8 mg/dL. For the same compound, the “ABSOLUTE BASOPHIL” value [4] was 0 CELLS/uL, the “ABSOLUTE EOSINOPHIL” value [4] was 0 CELLS/uL and the “ABSOLUTE LYMPHOCYTE” value [4] was 10935.67 CELLS/uL. For the same compound, the “ABSOLUTE MONOCYTE” value [4] was 287 CELLS/uL, the “ABSOLUTE SEGMENTED NEUTROPHIL” value [4] was 1277.33 CELLS/uL and the BASOPHIL [4] was 0%. The EOSINOPHIL [4] was 0%, the “ERYTHROCYTE COUNT” value [4] was 6.35 x10E6/uL and the HEMATOCRIT [4] was 38.33%. The HEMOGLOBIN [4] was 14.23 G/DL, the “LEUKOCYTE COUNT” value [4] was 12.5 x10E3/uL and the LYMPHOCYTE [4] was 87.67%. The “MEAN CORPUSCULAR HEMOGLOBIN” value [4] was 22.4 pg, the “MEAN CORPUSCULAR VOLUME” value [4] was 60.4 fL and the MONOCYTE [4] was 2.33%. For the same compound, the NEUTROPHIL [4] was 10%, the “NUCLEATED RED BLOOD CELLS” value [4] was 0 /100WBC and the “PLATELET COUNT” value [4] was 1123.67 x10E3/uL. For the same compound, the “ALANINE AMINOTRANSFERASE” value [4] was 56 u/L, the ALBUMIN [4] was 4.1 G/DL and the “ALKALINE PHOSPHATASE” value [4] was 361.67 u/L. For the same compound, the “ASPARTATE AMINOTRANSFERASE” value [4] was 78.67 u/L, the “BLOOD UREA NITROGEN” value [4] was 17.67 mg/dL and the “CARBON DIOXIDE” value [4] was 27 mmol/L. The CHLORIDE [4] was 103.67 MEQ/L, the CHOLESTEROL [4] was 72.33 mg/dL and the “CREATINE PHOSPHOKINASE” value [4] was 366.67 u/L. The CREATININE [4] was 0.16 mg/dL, the GLUCOSE [4] was 155.33 mg/dL and the “LACTATE DEHYDROGENASE” value [4] was 194.67 u/L. The LIPASE [4] was 10 u/L, the PHOSPHORUS [4] was 12.9 mg/dL and the POTASSIUM [4] was 7.06 MEQ/L. The SODIUM [4] was 147.1 MEQ/L, the “TOTAL BILIRUBIN” value [4] was 0.17 mg/dL and the “TOTAL PROTEIN” value [4] was 5.9 G/DL. For the same compound, the “URIC ACID” value [4] was 2 mg/dL.
